Test results: patent US6737383B1, “Herbicidal oxadiazolidines” (priority 1999, dated 2004)

Assays:
[1] = tested on: bedstraw; assay: Test B pre/postemergence bedstraw; format: in vivo, Galium aparine; conditions: for Bedstraw plant response rating: Postemergence; for Plant response rating, Bedstraw: Preemergence
Procedure, shortened: (§1)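 Test chemicals in a non-phytotoxic solvent mixture with surfactant were sprayed preemergence onto planted seeds and postemergence onto plants 2 to 18 cm tall (1- to 4-leaf stage). After twelve to sixteen days in a greenhouse, injury was visually rated against untreated controls from 0 (no effect) to 10 (complete control).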

[2] = tested on: blackgrass; assay: Test B pre/postemergence blackgrass; format: in vivo, Alopecurus myosuroides
Procedure, shortened: as §1

[3] = tested on: surinam grass; assay: Test B pre/postemergence surinam grass; format: in vivo, Brachiaria decumbens
Procedure, shortened: as §1

[4] = tested on: cocklebur; assay: Test B pre/postemergence cocklebur; format: in vivo, Xanthium strumarium
Procedure, shortened: as §1

[5] = tested on: corn; assay: Test B pre/postemergence corn; format: in vivo, Zea mays; conditions: for Corn plant response rating: Postemergence; for Plant response rating, Corn: Preemergence
Procedure, shortened: as §1

[6] = tested on: crabgrass; assay: Test B pre/postemergence crabgrass; format: in vivo, Digitaria sanguinalis
Procedure, shortened: as §1

[7] = tested on: giant foxtail; assay: Test B pre/postemergence giant foxtail; format: in vivo, Setaria faberii
Procedure, shortened: as §1

[8] = tested on: pigweed; assay: Test B pre/postemergence pigweed; format: in vivo, Amaranthus retroflexus
Procedure, shortened: as §1

[9] = tested on: soybean; assay: Test B pre/postemergence soybean; format: in vivo, Glycine max
Procedure, shortened: as §1

[10] = tested on: sugar beet; assay: Test B pre/postemergence sugar beet; format: in vivo, Beta vulgaris
Procedure, shortened: as §1

[11] = tested on: velvetleaf; assay: Test B pre/postemergence velvetleaf; format: in vivo, Abutilon theophrasti
Procedure, shortened: as §1

[12] = tested on: wild oat; assay: Test B pre/postemergence wild oat; format: in vivo, Avena fatua
Procedure, shortened: as §1

[13] = tested on: purple nutsedge; assay: Test B pre/postemergence purple nutsedge; format: in vivo, Cyperus rotundus
Procedure, shortened: as §1

[14] = tested on: rice; assay: Test B flood test rice; format: in vivo, Oryza sativa
Procedure, shortened: (§2)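 Flood test on plants grown to the 2-leaf stage; treated plants kept in greenhouse twelve to sixteen days, then visually rated against controls on a 0 (no effect) to 10 (complete control) scale.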

[15] = tested on: smallflower flatsedge; assay: Test B flood test smallflower flatsedge; format: in vivo, Cyperus difformis
Procedure, shortened: as §2

[16] = tested on: bamyardgrass; assay: Test B flood test barnyardgrass; format: in vivo, Echinochloa crus-galli
Procedure, shortened: as §2

[17] = Rate 62 g/ha, scale 0 to 10, 0 is no effect, 10 is complete control
[18] = Rate 125 g/ha, scale 0 to 10 (0 no effect, 10 complete control)
[19] = Rate 250 g/ha, scale of 0 to 10 where 0 is no effect and 10 is complete control
[20] = Rate 125 g/ha, scale 0 to 10, 0 no effect, 10 complete control
[21] = Postemergence, Rate 62 g/ha, scale 0 to 10, 0 is no effect, 10 is complete control
[22] = Postemergence, Rate 250 g/ha, scale 0 to 10, 0 no effect, 10 complete control
[23] = Preemergence, Rate 62 g/ha, scale 0 to 10, 0 is no effect, 10 is complete control
[24] = Preemergence, Rate 125 g/ha, scale 0 to 10 (0 no effect, 10 complete control)
[25] = Preemergence, Rate 250 g/ha, scale of 0 to 10 where 0 is no effect and 10 is complete control
[26] = Preemergence, Rate 500 g/ha, scale 0 (no effect) to 10 (complete control)
[27] = Rate 125 g/ha, Postemergence, scale 0 to 10, 0 no effect, 10 complete control
[28] = Rate 500 g/ha, Postemergence, scale 0 to 10, 0 no effect, 10 complete control
[29] = Rate 125 g/ha, Postemergence section (flood test species), scale 0 to 10, 0 no effect, 10 complete control
[30] = Rate 500 g/ha, listed under Postemergence (flood test species), scale 0 to 10, 0 no effect, 10 complete control
[31] = flood test, listed under Postemergence, Rate 250 g/ha, scale 0 to 10, 0 no effect, 10 complete control

Cc1cccc(Cl)c1-n1c(=O)on(C(=O)N(c2ccc(F)cc2)C(C)C)c1=O [Compound 53]
0: Plant response rating, Bedstraw [1, 17] | Plant response rating, Bedstraw [1, 18] | Plant response rating, Bedstraw [1, 19] | Blackgrass plant response rating [2, 21] | Blackgrass plant response rating [2, 22] | Plant response rating, Blackgrass [2, 23] | Blackgrass plant response rating [2, 27] | Blackgrass plant response rating [2, 28] | B. signalgrass plant response rating [3, 21] | B. signalgrass plant response rating [3, 22] | Plant response rating, B. signalgrass [3, 23] | Plant response rating, B. signalgrass [3, 24] | B. signalgrass plant response rating [3, 27] | B. signalgrass plant response rating ([3]; Rate 500 g/ha, Postemergence, scale of 0 to 10 where 0 is no effect and 10 is complete control) | Cocklebur plant response rating [4, 21] | Plant response rating, Cocklebur [4, 23] | Plant response rating, Cocklebur [4, 25] | Cocklebur plant response rating [4, 27] | Corn plant response rating [5, 17] | Corn plant response rating ([5]; Rate 250 g/ha, scale 0 to 10, 0 no effect, 10 complete control) | Plant response rating, Corn [5, 17] | Plant response rating, Corn [5, 18] | Plant response rating, Corn [5, 19] | Corn plant response rating [5, 20] | Corn plant response rating ([5]; Rate 500 g/ha, scale 0 to 10, 0 no effect, 10 complete control) | Giant foxtail plant response rating [7, 21] | Plant response rating, Redroot pigweed [8, 23] | Plant response rating, Redroot pigweed [8, 24] | Plant response rating, Redroot pigweed [8, 25] | Plant response rating, Soybean [9, 23] | Plant response rating, Soybean [9, 24] | Plant response rating, Soybean [9, 25] | Soybean plant response rating [9, 26] | Sugarbeets plant response rating [10, 21] | Plant response rating, Sugarbeets [10, 23] | Plant response rating, Sugarbeets [10, 24] | Plant response rating, Sugarbeets [10, 25] | Sugarbeets plant response rating [10, 27] | Velvetleaf plant response rating [11, 21] | Plant response rating, Velvetleaf [11, 23] | Plant response rating, Velvetleaf [11, 24] | Plant response rating, Velvetleaf [11, 25] | Velvetleaf plant response rating [11, 26] | Velvetleaf plant response rating [11, 27] | Wild oats plant response rating [12, 21] | Wild oats plant response rating [12, 22] | Plant response rating, Wild oats [12, 24] | Plant response rating, Wild oats [12, 25] | Wild oats plant response rating [12, 26] | Wild oats plant response rating [12, 27] | Nutsedge plant response rating [13, 21] | Nutsedge plant response rating [13, 22] | Plant response rating, Nutsedge [13, 23] | Plant response rating, Nutsedge [13, 24] | Plant response rating, Nutsedge [13, 25] | Nutsedge plant response rating [13, 26] | Nutsedge plant response rating [13, 27] | Nutsedge plant response rating [13, 28] | Rice plant response rating [14, 21] | Rice plant response rating [14, 29] | Rice plant response rating [14, 30] | Rice plant response rating [14, 31] | S. Flatsedge plant response rating [15, 21] | S. Flatsedge plant response rating [15, 29] | S. Flatsedge plant response rating [15, 30] | S. Flatsedge plant response rating [15, 31] | Barnyardgrass plant response rating [16, 21] | Barnyardgrass plant response rating [16, 29] | Barnyardgrass plant response rating [16, 30] | Barnyardgrass plant response rating [16, 31]
5: Plant response rating, Crabgrass [6, 24]
3: Bedstraw plant response rating [1, 20] | B. signalgrass plant response rating [3, 26] | Plant response rating, Crabgrass [6, 23] | Giant foxtail plant response rating [7, 22] | Plant response rating, Giant foxtail [7, 23] | Plant response rating, Giant foxtail [7, 24] | Giant foxtail plant response rating [7, 27] | Giant foxtail plant response rating [7, 28] | Redroot pigweed plant response rating [8, 26] | Redroot pigweed plant response rating [8, 27] | Soybean plant response rating [9, 21] | Soybean plant response rating [9, 22] | Soybean plant response rating [9, 27] | Soybean plant response rating [9, 28] | Sugarbeets plant response rating [10, 26]
1: Plant response rating, Blackgrass [2, 24] | Plant response rating, Blackgrass [2, 25] | Crabgrass plant response rating [6, 21] | Redroot pigweed plant response rating [8, 21] | Sugarbeets plant response rating [10, 22] | Velvetleaf plant response rating [11, 22] | Velvetleaf plant response rating [11, 28]
4: Blackgrass plant response rating [2, 26] | Cocklebur plant response rating [4, 22] | Cocklebur plant response rating [4, 28] | Crabgrass plant response rating [6, 27]
10: Crabgrass plant response rating [6, 26] | Crabgrass plant response rating [6, 28] | Giant foxtail plant response rating [7, 26] | Redroot pigweed plant response rating [8, 28]
6: Crabgrass plant response rating [6, 22] | Redroot pigweed plant response rating [8, 22]
— 0 0 0 0: Cocklebur plant response rating [4, 26]
7: Plant response rating, Crabgrass [6, 25]
8: Plant response rating, Giant foxtail [7, 25]
2: Bedstraw plant response rating [1, 17] | Plant response rating, B. signalgrass [3, 25] | Sugarbeets plant response rating [10, 28] | Wild oats plant response rating [12, 28]
